Experimental data from patent publication US20240293351A1, “METHODS OF ADMINISTERING SYNTHETIC TRITERPENOIDS” (REATA PHARMACEUTICALS HOLDINGS, LLC, priority 2020, published 2024).

Legend:
[1] = Open label dose-ranging study 402-C-0902 in type 2 diabetic patients with stage 3b-4 CKD; type: in vivo, human
[2] = Thorough QT Study in healthy volunteers; type: in vivo, human; settings: 6 days
Procedure: Intensive blood pressure monitoring was employed in a separate Thorough QT Study, which was conducted in healthy volunteers.

[3] = Drug-drug interaction study: bardoxolone methyl alone and with itraconazole in healthy volunteers; settings: for AUC extra %, GM / AUC extra %, Mean / CL/F, GM / CL/F, Mean / λz, GM / λz, Mean / AUC(0-t) / AUC(0-inf) / Cmax / half-life / Vd/F / Tmax: plasma; for AUC(0-t) / AUC(0-inf) / Cmax / half-life / Vd/F / Tmax: human; for AUC(0-t): AUC0-t; for AUC(0-inf): AUC0-∞; for Vd/F: Vz/F
[4] = Period 1: single oral 10 mg bardoxolone methyl alone, fasted, n = 16
[5] = Period 2: single 10 mg bardoxolone methyl with daily 200 mg itraconazole, n = 15
[6] = bardoxolone methyl alone (Period 1)
[7] = oral, 10 mg, Geom. Mean, Bardoxolone Methyl Alone (A), paired analysis n = 15
[8] = oral, GM, Period 2: single 10 mg bardoxolone methyl with daily 200 mg itraconazole, n = 15
[9] = oral, Geom. Mean, Bardoxolone Methyl + Itraconazole (B), paired analysis n = 15
[10] = oral, Mean, Period 2: single 10 mg bardoxolone methyl with daily 200 mg itraconazole, n = 15
[11] = po, 10 mg, GM, Period 1: single oral 10 mg bardoxolone methyl alone, fasted, n = 16
[12] = po, 10 mg, Mean, Period 1: single oral 10 mg bardoxolone methyl alone, fasted, n = 16

COC(=O)[C@]12CCC(C)(C)C[C@H]1[C@H]1C(=O)C=C3[C@@]4(C)C=C(C#N)C(=O)C(C)(C)[C@@H]4CC[C@@]3(C)[C@]1(C)CC2 [Bardoxolone methyl, methyl-2-cyano-3,12-dioxooleana-1,9-dien-28-oic acid]
SAE, SOC Card: Cardiac failure congestive, patients n (%) ([1]; SDD 15 mg QD 85 days, N = 50): 0
AE, SOC Card: Cardiac failure congestive, patients n (%) ([1]; SDD 30 mg QD 85 days, N = 14): 1 (7)
AE, SOC Card: Oedema peripheral, patients n (%) ([1]; SDD 30 mg QD 85 days, N = 14): 0
AE, SOC Genrl: Oedema peripheral, patients n (%) ([1]; SDD 30 mg QD 85 days, N = 14): 3 (21)
AE, SOC Metab: Oedema peripheral, patients n (%) ([1]; SDD 30 mg QD 85 days, N = 14): 1 (7)
AE, SOC Resp: Dyspnoea exertional, patients n (%) ([1]; SDD 30 mg QD 85 days, N = 14): 0
AE, SOC Resp: Dyspnoea, patients n (%) ([1]; SDD 30 mg QD 85 days, N = 14): 1 (7)
SAE, SOC Card: Cardiac failure congestive, patients n (%) ([1]; SDD 30 mg QD 85 days, N = 14): 1 (7)
Change in blood pressure ([2]; 20 mg or 80 mg once daily): did not differ from changes observed in placebo-treated patients
QTcF, placebo-corrected changes (ΔΔQTcF) ([2]; 20 or 80 mg): did not increase QTcF
Tolerability of concomitant administration with itraconazole ([3]; 10 mg + itraconazole 200 mg): generally safe and well tolerated
Clearance (GM CL/F) ([3]; 10 mg single dose + itraconazole 200 mg daily): 41.6 L/h
Clearance (GM CL/F) ([3]; 10 mg single dose, alone): 359 L/h
Increase in exposure in the presence of itraconazole ([3]; 10 mg single dose, itraconazole 200 mg daily): > 5 fold
AUC extra %, GM [3, 4]: 5.81%
AUC extra %, Mean [3, 4]: 6.10%
CL/F, GM [3, 4]: 359 L/h
CL/F, Mean [3, 4]: 402 L/h
λz, GM [3, 4]: 0.0370 h⁻¹
λz, Mean [3, 4]: 0.0392 h⁻¹
AUC extra %, GM [3, 5]: 7.64%
AUC extra %, Mean [3, 5]: 8.47%
CL/F, GM [3, 5]: 41.6 L/h
CL/F, Mean [3, 5]: 42.8 L/h
λz, GM [3, 5]: 0.0074 h⁻¹
λz, Mean [3, 5]: 0.00762 h⁻¹
Subjects with a TEAE, n (%) [3, 6]: 3 (18.8%)
Subjects with study drug-related TEAEs (diarrhea, nausea, headache), n (%) [3, 6]: 1 (6.3%)
Subjects with a TEAE, n (%) ([3]; concomitant bardoxolone methyl and itraconazole (Period 2)): 1 (6.7%)
AUC(0-t) [3, 7]: 25.8 ng·h/mL
AUC(0-inf) [3, 7]: 27.6 ng·h/mL
Cmax [3, 7]: 2.41 ng/mL
half-life ([3]; oral, 10 mg, Mean t1/2, 10 mg single dose, alone): 19.8 h
AUC(0-t) [3, 8]: 220 ng·h/mL
AUC(0-t) [3, 9]: 220 ng·h/mL
AUC(0-t) [3, 10]: 226 ng·h/mL
AUC(0-inf) [3, 8]: 241 ng·h/mL
AUC(0-inf) [3, 9]: 241 ng·h/mL
AUC(0-inf) [3, 10]: 248 ng·h/mL
Cmax [3, 8]: 16.6 ng/mL
Cmax [3, 9]: 16.6 ng/mL
Cmax [3, 10]: 17.3 ng/mL
half-life ([3]; oral, Mean t1/2, 10 mg single dose + itraconazole 200 mg daily): 95.9 h
Vd/F [3, 8]: 5620 L
Vd/F [3, 10]: 5900 L
Tmax [3, 10]: 3.1 h
Tmax ([3]; oral, Median, Period 2: single 10 mg bardoxolone methyl with daily 200 mg itraconazole, n = 15): 3 h
half-life ([3]; oral, t½, Mean, Period 2: single 10 mg bardoxolone methyl with daily 200 mg itraconazole, n = 15): 95.9 h
half-life ([3]; oral, t½, Median, Period 2: single 10 mg bardoxolone methyl with daily 200 mg itraconazole, n = 15): 97.7 h
AUC(0-t) [3, 11]: 26.1 ng·h/mL
AUC(0-t) [3, 12]: 29.3 ng·h/mL
AUC(0-inf) [3, 11]: 27.8 ng·h/mL
AUC(0-inf) [3, 12]: 31 ng·h/mL
Cmax [3, 11]: 2.43 ng/mL
Cmax [3, 12]: 2.58 ng/mL
Vd/F [3, 11]: 9700 L
Vd/F [3, 12]: 10200 L
Tmax [3, 12]: 2.9 h
Tmax ([3]; po, 10 mg, Median, Period 1: single oral 10 mg bardoxolone methyl alone, fasted, n = 16): 2.5 h
half-life ([3]; po, 10 mg, t½, Mean, Period 1: single oral 10 mg bardoxolone methyl alone, fasted, n = 16): 19.8 h
half-life ([3]; po, 10 mg, t½, Median, Period 1: single oral 10 mg bardoxolone methyl alone, fasted, n = 16): 20.3 h
Changes in laboratory parameters ([3]; whole study): no clinically relevant mean or individual changes in laboratory parameters
Deaths, SAEs, adverse events leading to discontinuation ([3]; whole study): No subjects died, had an SAE, or had an adverse event that led to discontinuation of study drug
